# PMC9601137, “Deciphering Cellodextrin and Glucose Uptake in Clostridium thermocellum” (mBio, 2022)
# “Also recorded” adds a separate entry of the source. Like-named read-outs stand apart in the source and are kept apart here.
# How the values were obtained:
# CbpB [1] = target: T1, CbpB (Acetivibrio thermocellus (Clostridium thermocellum), UniProt A3DE73, V209A/V350L); experiment: ITC titration of carbohydrate ligands with CbpB; format: binding
# Method: (§1) Isothermal titration calorimetry measurements were performed at 30°C using a MicroCal PEAQ-ITC (Malvern Panalytical Ltd., Malvern, United Kingdom). Protein samples were dialyzed against buffer containing 50 mM Tris-HCl (pH 8.0) and 100 mM NaCl. Carbohydrate-ligand solutions of cellodextrins, glucose, and xylose were prepared using the same buffer as for protein dialysis. The sample cell was loaded with 280 μL of protein sample (~50 μM), and the reference cell contained distilled water. The syringe was filled with 50 μL of ligand (500 to 750 μM). Titrations were carried out by adding 0.8 μL of ligand for the first injection and 2 μL for the subsequent 19 injections, with stirring at 750 rpm. Binding parameters were determined by fitting the experimental binding isotherms using a single-site model.
# CbpA [2] = target: T2, CbpA (Acetivibrio thermocellus (Clostridium thermocellum), UniProt A3DCF2); experiment: NMR titration (1H-15N HSQC) of 15N-labelled CbpA with saccharides; format: binding; details: 298 K, pH 6.5, protein:substrate up to 1:20
# Method: (§2) NMR titration experiments were performed at 298 K on a Bruker Avance III 600 MHz NMR spectrometer equipped with a cryoprobe. The ^15N-labeled protein samples contained 0.1 or 0.2 mM sugar-binding protein in 20 mM Bis-Tris (pH 6.5), 100 mM KCl, 0.02% (wt/vol) dextran sulfate sodium, and 90% H2O/10% D2O. The concentrations of carbohydrate substrates were 10, 20, or 100 mM in the same buffer. For the titration, the substrates were gradually added to the labeled proteins until the ratio of their concentrations reached 1:20. A series of two-dimensional ^1H-^15N HSQC spectra were recorded at different protein-substrate ratios during the titration.
# CbpB [3] = target: T1, CbpB; experiment: NMR titration (1H-15N HSQC) of 15N-labelled CbpB with saccharides; format: binding; details: 298 K, pH 6.5, protein:substrate up to 1:20
# Method: as §2
# CbpA [4] = target: T2, CbpA; experiment: ITC titration of carbohydrate ligands with CbpA; format: binding
# Method: as §1
# CbpC = tested on: CbpC; set-up: method as in PMID 18952792; details: cited from earlier work
# Lbp = tested on: Lbp; set-up: method as in PMID 18952792; details: previous study; cited from earlier work
# C. thermocellum cells = experiment: Cell-associated cellulosome (cellulase) activity measurement; format: cell-based, Clostridium thermocellum; details: glucose+cellobiose medium vs glucose medium
# Method: C. thermocellum cells were cultivated to the early exponential stage with various carbon sources. Cell suspensions (1.0 mL) were sampled and centrifuged at 15,000 × g for 10 min to separate supernatant from the pellet. Cell-associated cellulosome activity was measured in a 1.0-mL reaction volume containing the pellet and 15 mg Avicel as the substrate, using GS-2 medium as the reaction buffer. The concentration of reducing sugars was determined by the 3,5-dinitrosalicylic acid method after incubation at 55°C for 24 h unless otherwise stated. One unit of enzyme activity is defined as the amount of enzyme that releases 1 nmol reducing sugar (glucose equivalent) per min.
# CbpD [5] = experiment: ITC titration of carbohydrate ligands with CbpD; format: binding, Clostridium thermocellum; details: 30°C
# Method: as §1
# CbpD [6] = experiment: NMR titration of 15N-labelled CbpD with saccharides; format: binding, Clostridium thermocellum; details: 298 K
# Method: as §2
# [7] = ITC, 30°C, 50 mM Tris-HCl pH 8.0, 100 mM NaCl, single-site model
# [8] = ITC, 30°C, 50 mM Tris-HCl pH 8.0, 100 mM NaCl, single-site model, read-out: KD (dissociation constant)
# T1 sequence (A3DE73 entry or part of it V209A/V350L): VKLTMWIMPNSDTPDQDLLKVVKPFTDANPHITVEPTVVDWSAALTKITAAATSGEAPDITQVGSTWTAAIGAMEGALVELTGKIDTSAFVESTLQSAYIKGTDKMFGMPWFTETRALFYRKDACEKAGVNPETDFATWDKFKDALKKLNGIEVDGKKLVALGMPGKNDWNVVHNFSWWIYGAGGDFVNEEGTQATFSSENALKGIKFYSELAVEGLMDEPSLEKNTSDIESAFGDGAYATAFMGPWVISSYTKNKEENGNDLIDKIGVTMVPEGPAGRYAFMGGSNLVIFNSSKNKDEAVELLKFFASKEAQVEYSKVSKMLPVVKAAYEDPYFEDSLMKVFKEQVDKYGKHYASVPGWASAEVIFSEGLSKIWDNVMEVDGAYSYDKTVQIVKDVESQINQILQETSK
# T2 sequence (A3DCF2 entry or part of it): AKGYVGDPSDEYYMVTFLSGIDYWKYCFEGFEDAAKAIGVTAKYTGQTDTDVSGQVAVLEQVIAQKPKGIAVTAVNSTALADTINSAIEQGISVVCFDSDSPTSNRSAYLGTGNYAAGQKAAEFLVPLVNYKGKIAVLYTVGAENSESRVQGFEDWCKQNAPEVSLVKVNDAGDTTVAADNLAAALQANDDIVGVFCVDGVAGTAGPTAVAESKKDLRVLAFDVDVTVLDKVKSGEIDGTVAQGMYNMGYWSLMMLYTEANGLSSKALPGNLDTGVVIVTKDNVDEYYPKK
SMILES,"interaction with CbpB in ITC, in words (CbpB [1]; ITC, 30°C)",binding to CbpA in NMR titration (HSQC peak shifts) (CbpA [2]),binding to CbpB in NMR titration (HSQC peak shifts) (CbpB [3]),"Ka (CbpB [1]; ITC, 30°C)","TΔS (CbpB [1]; ITC, 30°C) [kcal/mol]","ΔG (CbpB [1]; ITC, 30°C) [kcal/mol]","ΔH (change in enthalpy) (CbpB [1]; ITC, 30°C) [kcal/mol]",N (number of binding site) (CbpB [1]; [7]),Kd (CbpB [1]; [8]) [µM],other results
"OC[C@H]1OC(O)[C@H](O)[C@@H](O)[C@@H]1O (some centres unmarked) [Glucose, glucose]",could not be fitted to obtain reasonable N and KD values,binds; also recorded: significant peak shifts,not,–,–,–,–,–,–,"Kd (CbpA [4]): 240 ± 95 µM; binding to CbpA in ITC, in words (CbpA [4]; ITC): remarkably weak; Ka (CbpA [4]; ITC, 30°C): 0.042 ± 0.016 ×10^5 · M^−1; TΔS (CbpA [4]; ITC, 30°C): 5.43 kcal/mol; ΔG (CbpA [4]; ITC, 30°C): -5.02 kcal/mol; ΔH (change in enthalpy) (CbpA [4]; ITC, 30°C): 0.409 ± 0.086 kcal/mol; N (number of binding site) (CbpA [4]; [7]): 1.06 ± 0.07; binding to CbpC in previous ITC experiments (CbpC): can bind"
"OC[C@H]1O[C@@H](O[C@H]2[C@H](O)[C@@H](O)[C@H](O[C@H]3[C@H](O)[C@@H](O)C(O)O[C@@H]3CO)O[C@@H]2CO)[C@H](O)[C@@H](O)[C@@H]1O (some centres unmarked) [Cellotriose, cellotriose]",–,not,significant peak shifts,8.55 ± 1.69 ×10^5 · M^−1,10.7,-8.25,2.49 ± 0.072,0.97 ± 0.02,1.17 ± 0.23,–
"OC[C@H]1O[C@@H](O[C@H]2[C@H](O)[C@@H](O)[C@H](O[C@H]3[C@H](O)[C@@H](O)[C@H](O[C@H]4[C@H](O)[C@@H](O)C(O)O[C@@H]4CO)O[C@@H]3CO)O[C@@H]2CO)[C@H](O)[C@@H](O)[C@@H]1O (some centres unmarked) [Cellotetraose, cellotetraose]",highest binding affinity,–,–,17.8 ± 2.5 ×10^5 · M^−1,10.3,-8.68,1.66 ± 0.0263,1.02 ± 0.08,0.56 ± 0.08,"Kd (CbpB [1]; ITC, 30°C, 50 mM Tris-HCl pH 8.0, 100 mM NaCl, single-site model, listed as cellotetraose, read-out: KD (dissociation constant)): 0.562 µM"
"OC[C@H]1O[C@@H](O[C@H]2[C@H](O)[C@@H](CO)OC(O)[C@@H]2O)[C@H](O)[C@@H](O)[C@@H]1O (some centres unmarked) [Laminaribiose, laminaribiose]",lower affinity compared to cellobiose,–,–,0.93 ± 0.25 ×10^5 · M^−1,7.98,-6.91,1.09 ± 0.1,0.98 ± 0.04,10.7 ± 2.8,binding to Lbp in ITC assays (Lbp): shown to bind
"OC[C@H]1O[C@@H](O[C@H]2[C@H](O)[C@@H](O)[C@H](O[C@H]3[C@H](O)[C@@H](O)[C@H](O[C@H]4[C@H](O)[C@@H](O)[C@H](O[C@H]5[C@H](O)[C@@H](O)C(O)O[C@@H]5CO)O[C@@H]4CO)O[C@@H]3CO)O[C@@H]2CO)[C@H](O)[C@@H](O)[C@@H]1O (some centres unmarked) [Cellopentaose, cellopentaose]",–,–,–,14.9 ± 3.3 ×10^5 · M^−1,11.3,-8.58,2.75 ± 0.072,1.02 ± 0.01,0.67 ± 0.15,–
"O=C[C@H](O)[C@@H](O)[C@H](O[C@@H]1O[C@H](CO)[C@@H](O)[C@H](O)[C@H]1O)[C@H](O)CO [Cellobiose, cellobiose]",–,not,can bind; also recorded: significant peak shifts,5.29 ± 0.99 ×10^5 · M^−1,4.66,-7.93,-3.27 ± 0.096,1.03 ± 0.02,–,"Kd (CbpB [1]): 1.89 ± 0.36 µM; induction effect on cellulosome expression (cellulase activity) (C. thermocellum cells; wild-type cells, 5 g/L cellobiose): significant induction effect; induction effect on cellulosome expression (cellulase activity) (C. thermocellum cells; ΔtransporterB and Δ2554 cells): no induction effect"
O=C[C@H](O)[C@@H](O)[C@H](O)CO [xylose],–,–,–,–,–,–,–,–,–,interaction with CbpD in ITC (CbpD [5]): could not detect any xylose-binding ability; interaction with CbpD in NMR titration (CbpD [6]): could not detect any xylose-binding ability
